Measurements: publication PMC12526004, “Tiliroside Suppresses Uric Acid Production in Hepatocytes and Attenuates Purine-Induced Hyperuricemia in Male ICR Mice” (Molecules, 2025)

Tested on: AML12 hepatocytes
Test: Cell viability, WST-8 assay
Type: cell-based
Settings: concentrations up to 100 µM, 2 h
Method: The viability of AML12 cells was determined using the WST-8 assay provided in the Cell Counting Kit-8 (Dojindo Laboratories, Kumamoto, Japan). Cells were initially seeded at 5 × 10^3 cells per well in 96-well plates and maintained in DMEM/F-12 medium containing 10% (v/v) FBS for 72 h. To induce serum deprivation, the medium was replaced with serum-free DMEM/F-12, and cells were incubated for an additional 24 h. […] The treatment lasted for 2 h. Subsequently, cells were washed again with BSS and incubated with the WST-8 reagent for 1 h. Absorbance was measured at 490 nm using a microplate reader (MTP-310Lab; CORONA […] Co., Ltd., […], Japan). Cell viability was normalized to the DMSO control (0 μM), which was set at 100%.

## O=C(/C=C/c1ccc(O)cc1)OC[C@H]1O[C@@H](Oc2c(-c3ccc(O)cc3)oc3cc(O)cc(O)c3c2=O)[C@H](O)[C@@H](O)[C@@H]1O [Tiliroside, kaempferol-3-O-(6′′-p-coumaroyl)-glucoside]
  cytotoxic effects (cell viability): did not exhibit any cytotoxic effects
